Values of other authors as cited in patent EP4640072A1, “FLEECE MATERIALS TREATED WITH AN ION-PAIRING AGENT AND ORAL PRODUCTS COMPRISING FLEECE MATERIALS TREATED WITH AN ION-PAIRING AGENT” (Nicoventures Trading Limited, priority 2024, dated 2025).

Tests used:
[1] = lipophilicity of the organic acid; values obtained from PubChem or calculated
[2] = test system: human buccal tissue; settings: nicotine solution at pH = 6 relative to nicotine solution at pH 8.1; perfusion cell
[3] = not given; remark: listed apart in the source

Molecule | log(P)* [1] | further results
CC(/C=C/C=C(C)/C=C/C(=O)O)=C\C=C\C=C(C)\C=C\C=C(C)\C=C\C(=O)O (stereo in doubt) [norbixin, (2E,4E,6E,8E,10E,12E,14E,16E,18E)-4,8,13,17-tetramethylicosa-2,4,6,8,10,12,14,16,18-nonaenedioic acid] | – | solubility: water soluble
CCCCCCCS(=O)(=O)O [1-heptanesulfonic acid] | 2.0 | –
O=C(/C=C/c1ccc(O)c(O)c1)O[C@@H](C(=O)O)[C@@H](O)C(=O)O [Caftaric acid] | 1.2 | –
COC(=O)/C=C/C(C)=C\C=C\C(C)=C\C=C\C=C(C)\C=C\C=C(C)\C=C\C(=O)O [bixin, (2E,4E,6E,8E,10E,12E,14E,16Z,18E)-20-methoxy-4,8,13,17-tetramethyl-20-oxoicosa-2,4,6,8,10,12,14,16,18-nonaenoic acid] | – | solubility: soluble in fats and alcohols but insoluble in water; chemical stability (when isolated, converts via isomerization into trans-bixin (β-bixin)): chemically unstable when isolated
CCCCCCCCCCCC(=O)O [dodecanoic acid] | 4.6 | –
CC(C)[C@@H]1CC[C@@H](C)C[C@H]1OC(=O)CCC(=O)O [monomenthyl succinate] | 3 | –
CN1CCCC1c1cccnc1 (stereo not shown) [nicotine] | – | factor by which the rate of diffusion across human buccal tissue was reduced [2]: ~ 7; log Kα1 ([3]; pyridine ring nitrogen): 3.41; log Ka2 ([3]; pyrrolidine ring nitrogen): 8.02
CCCCCCCC(=O)O [octanoic acid] | 3.05 | –
ethyl benzoic acid | 2.9 | –
isopropyl benzoic acid | 3.5 | –
